The text below walks through data of PMC11079024, “Identification of a family of species-selective complex I inhibitors as potential anthelmintics” (Nature Communications, 2024).

Like-named read-outs stand apart in the source and are kept apart here.

The target in assay [1] is C. elegans (N2) complex I (NADH:ubiquinone oxidoreductase) (Caenorhabditis elegans, UniProt P24887+Q93873+Q94360). The assay can be described thus: biochemical. In kind it is biochemical. Conditions: for Log IC50 C. elegans complex I: log10 of IC50 in µM, C. elegans mitochondria. The essentials:
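Mitochondria, 0.2 mg/mL protein, freeze-thawed three times, assayed in 25 mM KPi pH 7.5 with BSA, 80 μM NADH, 60 μM decylubiquinone, 160 μM DCIP, antimycin A and KCN. Rate from initial linear slope of A600 over 15 min. % of solvent control.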

A further assay deals with L1 wild-type C. elegans. The experiment in a line: microbe, parasite or virus in culture. Conditions: Caenorhabditis elegans, read-out: C. elegans KCN Survival Assay LC50, estimated from fitted dose-response curves; mean of at least two biological replicates.
Where [2] appears, read: read-out: C. elegans mitochondrial complex I activity.
[3] abbreviates: in vitro complex I dose response on C. elegans mitochondria, average of at least two biological replicates, fit in R (DRC), read-out: IC50 C. elegans complex I.
[4] abbreviates: wild-type C. elegans mitochondria, read-out: C. elegans Complex I IC50.
The mark [5] stands for this setting: wild-type C. elegans mitochondria, estimated from fitted dose-response curves, read-out: C. elegans Complex I IC50.
[6] abbreviates: wild-type (N2) mitochondria, read-out: C. elegans Complex I IC50.

Chain of C. elegans (N2) complex I (NADH:ubiquinone oxidoreductase) (Q94360 17-199): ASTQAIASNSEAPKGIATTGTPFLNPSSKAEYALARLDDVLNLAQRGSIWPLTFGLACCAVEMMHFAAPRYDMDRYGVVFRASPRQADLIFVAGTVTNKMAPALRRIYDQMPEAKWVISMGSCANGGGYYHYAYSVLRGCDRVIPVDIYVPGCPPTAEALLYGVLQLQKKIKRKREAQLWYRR
Chain of C. elegans (N2) complex I (NADH:ubiquinone oxidoreductase) (P24887 whole entry): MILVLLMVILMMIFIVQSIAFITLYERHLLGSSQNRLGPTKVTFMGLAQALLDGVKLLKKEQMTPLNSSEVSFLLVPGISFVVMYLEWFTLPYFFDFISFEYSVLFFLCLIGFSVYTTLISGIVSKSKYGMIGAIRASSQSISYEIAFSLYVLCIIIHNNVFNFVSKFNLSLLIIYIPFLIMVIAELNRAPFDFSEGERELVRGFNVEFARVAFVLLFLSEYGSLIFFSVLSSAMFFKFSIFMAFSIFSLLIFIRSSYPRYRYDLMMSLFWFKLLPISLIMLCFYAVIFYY
Chain of C. elegans (N2) complex I (NADH:ubiquinone oxidoreductase) (Q93873 31-482): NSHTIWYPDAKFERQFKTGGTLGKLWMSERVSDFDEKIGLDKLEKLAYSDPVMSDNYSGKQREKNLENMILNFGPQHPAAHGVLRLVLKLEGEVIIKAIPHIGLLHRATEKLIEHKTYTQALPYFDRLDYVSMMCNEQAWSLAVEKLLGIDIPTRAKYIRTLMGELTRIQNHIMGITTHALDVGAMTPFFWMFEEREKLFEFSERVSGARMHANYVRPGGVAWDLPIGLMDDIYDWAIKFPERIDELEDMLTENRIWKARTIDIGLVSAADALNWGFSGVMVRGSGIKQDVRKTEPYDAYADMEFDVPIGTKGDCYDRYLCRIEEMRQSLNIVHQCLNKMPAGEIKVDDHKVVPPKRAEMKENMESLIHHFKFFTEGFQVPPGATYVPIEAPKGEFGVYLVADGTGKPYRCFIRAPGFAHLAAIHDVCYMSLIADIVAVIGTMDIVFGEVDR

`Nc1nc2ccccc2n1CCOc1ccc(Br)cc1` [Compound 5842535]: in assay [1] (setting [2]), the activity at 0.0001 µM came to 80%, the activity at 0.0005 µM is 92.9%, the activity at 0.001 µM came to 87.5% and the activity at 0.0025 µM amounted to 88.5%. Besides, in assay [1] (setting [2]), the activity at 0.005 µM worked out at 89.3%, the activity at 0.013 µM was 88.3%, the activity at 0.025 µM amounted to 81.7% and the activity at 0.063 µM was 79.5%. For the same molecule, in assay [1] (setting [2]), the activity at 0.125 µM came to 81.6%, the activity at 0.313 µM turned out to be 76.9%, the activity at 0.625 µM was 83.9% and the activity at 1.5 µM worked out at 76.4%. Also, in assay [1] (setting [2]), the activity at 3 µM stood at 65%, the activity at 15 µM is 17.8%, the activity at 37.5 µM amounted to 0.13% and the activity at 75 µM was 0%. Also, in assay [1] (setting [3]), the IC50 was 6.2 µM. Also, in assay [1], the “Log IC50 C. elegans complex I” value came out at 0.79 µM. For the same molecule, in assay [1] (setting [4]), the IC50 came to 6.2 µM. In addition, the 50% lethal concentration (LC50) in the assay with L1 wild-type C. elegans was 26.7 µM.
Turning to `Cc1ccc(C(C)C)c(OCC(O)Cn2cnc3ccccc32)c1` (centres unmarked) [Compound 6093301], in assay [1] (setting [2]), the activity at 0.0001 µM is 99.6%, the activity at 0.0005 µM came to 97.6%, the activity at 0.001 µM turned out to be 98.6% and the activity at 0.0025 µM came out at 105%. Further, in assay [1] (setting [2]), the activity at 0.005 µM is 96.1%, the activity at 0.013 µM stood at 93.6%, the activity at 0.025 µM is 90.6% and the activity at 0.063 µM came out at 81.2%. Moreover, in assay [1] (setting [2]), the activity at 0.125 µM stood at 72.6%, the activity at 0.313 µM was 50.3%, the activity at 0.625 µM is 38.5% and the activity at 1.5 µM is 20.3%. Moreover, in assay [1] (setting [2]), the activity at 3 µM turned out to be 11.5%, the activity at 15 µM was 1.13%, the activity at 37.5 µM came out at 0% and the activity at 75 µM was 0%. Further, the IC50 in assay [1] (setting [3]) is 0.36 µM. Further, the “Log IC50 C. elegans complex I” value in assay [1] is listed as -0.44 µM. For the same molecule, the IC50 in assay [1] (setting [5]) is 0.36 µM. Moreover, the 50% lethal concentration (LC50) in the assay with L1 wild-type C. elegans is 19.8 µM.
Take `Cc1cccc(OCCn2c(C)nc3ccccc32)c1` [Compound 6285199]: in assay [1] (setting [2]), the activity at 0.0001 µM stood at 94.3%, the activity at 0.0005 µM came to 99.3%, the activity at 0.001 µM was found to be 86.9% and the activity at 0.0025 µM was found to be 85.8%. Moreover, in assay [1] (setting [2]), the activity at 0.005 µM turned out to be 87.6%, the activity at 0.013 µM came out at 90.6%, the activity at 0.025 µM came to 92.4% and the activity at 0.063 µM came to 78.1%. In assay [1] (setting [2]), the activity at 0.125 µM worked out at 81.6%, the activity at 0.313 µM was found to be 54.6%, the activity at 0.625 µM was found to be 53.7% and the activity at 1.5 µM is 35.3%. Moreover, in assay [1] (setting [2]), the activity at 3 µM worked out at 23.4%, the activity at 15 µM is 3.64%, the activity at 37.5 µM came out at 1.37% and the activity at 75 µM stood at 1.88%. In addition, the IC50 in assay [1] (setting [3]) amounted to 0.84 µM. Also, in assay [1], the “Log IC50 C. elegans complex I” value was -0.0757 µM. In assay [1] (setting [5]), the half-inhibitory concentration (IC50) is 0.84 µM. Further, the median lethal concentration (LC50) in the assay with L1 wild-type C. elegans was 14.7 µM.
Regarding `Cc1ccc(Cn2c(C(C)C)nc3ccccc32)cc1` [Compound 6586153], the 50% inhibitory concentration (IC50) in assay [1] (setting [3]), in assay [1] (setting [6]) and in assay [1] (setting [4]) was 9.43 µM each time. Besides, in assay [1], the “Log IC50 C. elegans complex I” value was determined as 0.97 µM. Further, in the assay on L1 wild-type C. elegans, the LC50 was 24.9 µM.
Turning to `Cc1nc2ccccc2n1Cc1ccccc1Cl` [Compound 6707368], the 50% inhibitory concentration (IC50) in assay [1] (setting [3]), in assay [1] (setting [6]) and in assay [1] (setting [5]) was 0.56 µM throughout. Moreover, the “Log IC50 C. elegans complex I” value in assay [1] is -0.25 µM. In addition, the median lethal concentration (LC50) with L1 wild-type C. elegans is 8.24 µM.
Turning to `Clc1ccc(Cn2cnc3ccccc32)c(Cl)c1` [Compound 6750659], in assay [1] (setting [2]), the activity at 0.0001 µM was 89.4%, the activity at 0.0005 µM is 104%, the activity at 0.001 µM is 101% and the activity at 0.0025 µM was 110%. In addition, in assay [1] (setting [2]), the activity at 0.005 µM was 103%, the activity at 0.013 µM was 98.1%, the activity at 0.025 µM was 98.4% and the activity at 0.063 µM was determined as 84.8%. In addition, in assay [1] (setting [2]), the activity at 0.125 µM amounted to 79.5%, the activity at 0.313 µM was 62.1%, the activity at 0.625 µM was 45.6% and the activity at 1.5 µM was found to be 24.9%. Also, in assay [1] (setting [2]), the activity at 3 µM was 16.1%, the activity at 15 µM is 4.66%, the activity at 37.5 µM worked out at 3.82% and the activity at 75 µM turned out to be 5.12%. Besides, the half-maximal inhibitory concentration (IC50) in assay [1] (setting [3]) stood at 0.45 µM. Further, the “Log IC50 C. elegans complex I” value in assay [1] is recorded as -0.35 µM. Besides, the IC50 in assay [1] (setting [6]) was found to be 0.45 µM. In addition, in assay [1] (setting [5]), the IC50 is 0.45 µM. The LC50 in the assay with L1 wild-type C. elegans was 4.28 µM.
On to `C=CCn1c(-c2ccc(N(C)C)cc2)nc2ccccc21` [Compound 6873298], for which the IC50 in assay [1] (setting [3]) and in assay [1] (setting [5]) was 13.2 µM in each case. Moreover, the “Log IC50 C. elegans complex I” value in assay [1] worked out at 1.12 µM. Also, in the assay with L1 wild-type C. elegans, the LC50 was 5.19 µM.
Turning to `CCCn1c(COc2ccc(C)cc2)nc2ccccc21` [Compound 6944471], in assay [1] (setting [2]), the activity at 0.0001 µM was 95.2%, the activity at 0.0005 µM was 103%, the activity at 0.001 µM is 96.6% and the activity at 0.0025 µM was 100%. In addition, in assay [1] (setting [2]), the activity at 0.005 µM came to 90.8%, the activity at 0.013 µM worked out at 108%, the activity at 0.025 µM was found to be 106% and the activity at 0.063 µM was found to be 111%. In addition, in assay [1] (setting [2]), the activity at 0.125 µM stood at 123%, the activity at 0.313 µM came out at 103%, the activity at 0.625 µM worked out at 113% and the activity at 1.5 µM is 107%. In assay [1] (setting [2]), the activity at 3 µM was 96.1%, the activity at 15 µM worked out at 88.5%, the activity at 37.5 µM amounted to 89.5% and the activity at 75 µM turned out to be 64.7%. Further, in assay [1] (Dose 7.5 µM, read-out: C. elegans mitochondrial complex I activity), the activity at […] stood at 108%. Besides, in assay [1] (setting [5]), the IC50 was more than 75 µM. Further, in the assay with L1 wild-type C. elegans, the LC50 was 10.6 µM.
Regarding `Cc1ccc(CSCc2nc3ccccc3[nH]2)cc1` [Compound 7121781], in assay [1] (setting [2]), the activity at 0.0001 µM was determined as 100%, the activity at 0.0005 µM stood at 95.4%, the activity at 0.001 µM amounted to 94.3% and the activity at 0.0025 µM is 98%. Moreover, in assay [1] (setting [2]), the activity at 0.005 µM came to 98.1%, the activity at 0.013 µM came to 104%, the activity at 0.025 µM was 99.3% and the activity at 0.063 µM turned out to be 89.7%. In assay [1] (setting [2]), the activity at 0.125 µM came out at 95.8%, the activity at 0.313 µM came out at 87.2%, the activity at 0.625 µM was found to be 99.9% and the activity at 1.5 µM stood at 94%. In assay [1] (setting [2]), the activity at 3 µM is 73.4%, the activity at 15 µM is 71.1%, the activity at 37.5 µM was 43.5% and the activity at 75 µM was 23.3%. For the same molecule, the IC50 in assay [1] (setting [3]) was determined as 28.5 µM. Further, in assay [1], the “Log IC50 C. elegans complex I” value is listed as 1.46 µM. In assay [1] (setting [4]), the IC50 was 28.5 µM. Besides, the 50% lethal concentration (LC50) in the assay with L1 wild-type C. elegans is 9.79 µM.
As for `Clc1ccc(OCCn2cnc3ccccc32)c(Cl)c1` [Compound 7221649], in assay [1] (setting [2]), the activity at 0.0001 µM stood at 92.4%, the activity at 0.0005 µM was 97.1%, the activity at 0.001 µM came to 98.6% and the activity at 0.0025 µM amounted to 106%. In assay [1] (setting [2]), the activity at 0.005 µM amounted to 107%, the activity at 0.013 µM worked out at 101%, the activity at 0.025 µM was 101% and the activity at 0.063 µM worked out at 94.8%. Moreover, in assay [1] (setting [2]), the activity at 0.125 µM was 93.4%, the activity at 0.313 µM came out at 89.3%, the activity at 0.625 µM turned out to be 84.8% and the activity at 1.5 µM is 71.9%. Further, in assay [1] (setting [2]), the activity at 3 µM came to 58.5%, the activity at 15 µM came out at 22.2%, the activity at 37.5 µM is 11.4% and the activity at 75 µM was 6.54%. Besides, the IC50 in assay [1] (setting [3]) was found to be 4.19 µM. Also, the “Log IC50 C. elegans complex I” value in assay [1] was 0.62 µM. In addition, the IC50 in assay [1] (setting [4]) is 4.19 µM. Besides, in the assay with L1 wild-type C. elegans, the median lethal concentration (LC50) is 13 µM.
Regarding `Nc1nc2ccccc2n1Cc1ccc(Br)cc1` [Compound 7313068], the IC50 in assay [1] (setting [3]), in assay [1] (setting [6]) and in assay [1] (setting [5]) was 0.34 µM in each case. In addition, the “Log IC50 C. elegans complex I” value in assay [1] is listed as -0.47 µM. In addition, the LC50 in the assay with L1 wild-type C. elegans is 14.9 µM.
Regarding `Cc1nc2ccccc2n1Cc1ccc(C(C)C)cc1` [Compound 7353551], the half-maximal inhibitory concentration (IC50) in assay [1] (setting [3]), in assay [1] (setting [6]) and in assay [1] (setting [5]) was 0.43 µM in each case. Moreover, the “Log IC50 C. elegans complex I” value in assay [1] is on record as -0.37 µM. In the assay on L1 wild-type C. elegans, the LC50 was 7 µM.

Broadly, the IC50 is the point on the concentration scale where inhibition reaches its midpoint. A word on the LC50: it is the concentration that kills 50% of the test population.
